GI50 and TGI data for five molecules are collected here from PubChem BioAssay (NCI).

Some test systems named below: A498 renal; A549 NSCLC; HCT-15 colon; MALME-3M melanoma; MDA-MB-435; NCI-H23 lung; NCI-H522 lung; RPMI-8226 leukemia; SNB-19 CNS; TK-10 renal.
Assay in all cases: NCI tumour cell line growth inhibition, 48 h

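96-well plates; 48 h exposure; 5 concentrations. Endpoints by linear interpolation between flanking doses. Not reached: highest tested concentration assigned. Here, GI50 denotes the concentration required for 50% inhibition of growth. TGI denotes the concentration required for complete inhibition of growth.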

As for `ClCc1ccccc1Cn1cnc2nc(Cl)nc(Cl)c21`, the GI50 in the assay on A498 renal was 2.13 µM; in the assay on A549 NSCLC it was 5.29 µM; with HCT-15 colon, 0.197 µM; in the assay on MALME-3M melanoma, 1.68 µM; in the assay with MDA-MB-435, 6.04 µM; in the assay on NCI-H23 lung, 2.21 µM. In addition, the GI50 with NCI-H522 lung was 2.94 µM; with RPMI-8226 leukemia, 0.0318 µM; with SNB-19 CNS it was 1.14 µM; in the assay with TK-10 renal, 13.5 µM. In addition, the TGI with A498 renal is 4.83 µM; in the assay with A549 NSCLC, 13.2 µM; in the assay with HCT-15 colon, 0.434 µM; in the assay on MALME-3M melanoma, 7.75 µM; with MDA-MB-435 it was 13.2 µM; with NCI-H23 lung it was 7.14 µM. The TGI came out at 7.17 µM in the assay on NCI-H522 lung, 0.272 µM in the assay with RPMI-8226 leukemia, 2.51 µM in the assay on SNB-19 CNS and 29.8 µM in the assay on TK-10 renal.
Take `Nc1nc(-c2cccnc2)cc(-c2cc(-c3cccnc3)nc(N)n2)n1`: the TGI with A498 renal, in the assay with A549 NSCLC, in the assay with HCT-15 colon, with MALME-3M melanoma, with MDA-MB-435 and in the assay on NCI-H23 lung was more than 100 µM in each case. For the same molecule, the TGI in the assay with NCI-H522 lung, in the assay on RPMI-8226 leukemia, in the assay with SNB-19 CNS and with TK-10 renal was more than 100 µM in each case.
On to `O=C1CN=C(c2ccc[nH]2)c2cc(Cl)ccc2N1`, for which the GI50 was more than 100 µM with A498 renal; more than 100 µM in the assay with A549 NSCLC; 19.1 µM in the assay on HCT-15 colon; more than 100 µM with MALME-3M melanoma; more than 100 µM with MDA-MB-435; 18.6 µM with NCI-H23 lung. Moreover, the GI50 was 25.2 µM in the assay with NCI-H522 lung, 3.83 µM in the assay with RPMI-8226 leukemia, more than 100 µM in the assay on SNB-19 CNS and more than 100 µM in the assay with TK-10 renal. Further, the TGI with A498 renal, in the assay on A549 NSCLC, with HCT-15 colon, with MALME-3M melanoma, in the assay on MDA-MB-435 and in the assay with NCI-H23 lung was more than 100 µM throughout. Besides, the TGI in the assay on NCI-H522 lung, in the assay on RPMI-8226 leukemia, in the assay on SNB-19 CNS and with TK-10 renal was more than 100 µM each time.
As for `CC(C)[C@@]12C[C@@H](OC(=O)C3CO3)[C@@](C)(O1)[C@@H]1CC[C@@H](C)[C@H]1[C@@H]2OC(=O)/C=C/c1ccccc1` (stereo not given in full), the GI50 is 2.05 µM in the assay with A498 renal; 20.4 µM with A549 NSCLC; 21.1 µM with HCT-15 colon; 13 µM in the assay with MALME-3M melanoma; 18.4 µM in the assay with MDA-MB-435; 17.8 µM in the assay on NCI-H23 lung. In addition, the GI50 is 17.4 µM in the assay on NCI-H522 lung, 20.4 µM with RPMI-8226 leukemia, 16.6 µM in the assay with SNB-19 CNS and 29.6 µM with TK-10 renal. For the same molecule, the TGI with A498 renal is 4.91 µM; with A549 NSCLC, 49.5 µM; with HCT-15 colon, 60.6 µM; in the assay on MALME-3M melanoma, 27.4 µM; in the assay with MDA-MB-435, 38.3 µM; in the assay with NCI-H23 lung, 53.8 µM. Also, the TGI in the assay on NCI-H522 lung came out at 37.3 µM; in the assay with RPMI-8226 leukemia, 55.2 µM; with SNB-19 CNS it was 33.4 µM; with TK-10 renal, 65.8 µM.
Turning to `O=C(Nc1ccc(I)cc1F)c1cc(Br)ccc1O`, the GI50 in the assay on A498 renal is 0.175 µM; with A549 NSCLC, 2.81 µM; in the assay on HCT-15 colon, 0.743 µM; in the assay with MALME-3M melanoma, 0.379 µM; in the assay on MDA-MB-435 it was 0.652 µM; in the assay on NCI-H23 lung it was 0.472 µM. The GI50 in the assay with NCI-H522 lung is 0.348 µM; in the assay with RPMI-8226 leukemia, 0.321 µM; in the assay with SNB-19 CNS, 0.41 µM; with TK-10 renal, 1.62 µM. Also, the TGI was 0.63 µM with A498 renal; more than 100 µM in the assay with A549 NSCLC; 6.72 µM in the assay on HCT-15 colon; 2 µM with MALME-3M melanoma; 4.64 µM in the assay on MDA-MB-435; 3.34 µM in the assay on NCI-H23 lung. Besides, the TGI in the assay on NCI-H522 lung was 4.44 µM; in the assay with RPMI-8226 leukemia it was 1.63 µM; in the assay on SNB-19 CNS it was more than 100 µM; in the assay with TK-10 renal it was 9.3 µM.
